# Test system: GA-primed murine splenocytes
# Assay: ANOVA-based pattern identification method
# Format: cell-based, mouse
# Conditions: DOWN IN generic ONLY
# Source text: We sought to identify probes matching specific patterns of expression across experimental conditions using a technique that referred to as the ANOVA-based Pattern Identification Method.
# To carry out the analysis in a general manner, we computed the 6 p-values required to do pairwise comparisons of all 4 conditions for all probes using the ANOVA1 function in MATLAB. We then identified sets of probes matching the desired pattern. In the example above, probes were identified as being only affected by PG if their 6 pairwise comparison pvalues matched the following pattern (pGA-PG<0.05, pPG-reference standard<0.05, pPG-Medium<0.05, pGAMedium>0.05, pGA-reference standard>0.05, preference standard-Medium>0.05).
substance,measurement,setting,value
glatiramer acetate [GA],GFRA3 expression level,,5.616
same,GJA7 expression level,,5.868
same,GM362 expression level,,5.639
same,HEATR5A expression level,,5.695
same,IGHVS515—AF290966_IG_HEAVY—VARIABLE_5515_49 expression level,,5.952
same,LOC235971 expression level,,5.505
same,LOC277422 expression level,,5.729
same,LOC382760 expression level,,5.651
same,LOC382783 expression level,,5.536
same,LOC383612 expression level,,5.569
same,LOC383940 expression level,,5.805
same,LOC384215 expression level,,5.829
same,LOC384513 expression level,,5.705
same,LOC385059 expression level,,5.539
same,LOC385626 expression level,,6.046
same,LOC620009 expression level,,5.619
same,LOC676672 expression level,,5.825
same,LOC100043389 expression level,,5.675
same,LTBP1 expression level,,5.694
same,NEUROD4 expression level,,5.671
same,NFAT5 expression level,,5.815
same,OA1 expression level,,5.552
same,OLFR750 expression level,,5.646
same,OLFR1085 expression level,,5.642
same,OLFR1158 expression level,,5.912
same,OLFR1180 expression level,,5.658
same,OLFR1230 expression level,,5.655
same,OSBPL6 expression level,,5.8511
same,PCDHGA8 expression level,,5.782
same,PIK3R4 expression level,,5.881
same,PPP1R14D expression level,,5.611
same,PTCHD2 expression level,,5.831
same,RARRES1 expression level,,5.601
same,RNF207 expression level,,5.863
same,RPL10A expression level,,14.66
same,RTN2 expression level,,5.939
same,SCL0070954.1_214 expression level,,5.822
same,SERPINB3D expression level,,5.741
same,SMARCA2 expression level,,5.616
same,TMEM219 expression level,,6.158
same,TRPC6 expression level,,5.632
same,UTX expression level,,5.7
same,control_ILMN_1378571 expression level,,5.812
same,control_ILMN_1378664 expression level,,5.743
same,control_ILMN_1379333 expression level,,5.62
same,1110032A03RIK expression,group mean,5.853
same,1600012H06RIK expression,group mean,7.313
same,1600029O10RIK expression,group mean,7.692
same,1600032L17RIK expression,group mean,6.091
same,1700006H02RIK expression,group mean,5.861
same,1700011H14RIK expression,group mean,5.738
same,1700016G05RIK expression,group mean,5.78
same,1700016L04RIK expression,group mean,5.693
same,1700045I19RIK expression,group mean,5.885
same,1700073E17RIK expression,group mean,5.629
same,1700112H15RIK expression,group mean,5.628
same,1810005K13RIK expression,group mean,5.74
same,1810007M14RIK expression,group mean,6.86
same,2210008F06RIK expression,group mean,5.65
same,2210018M11RIK expression,group mean,6.603
same,2310016E02RIK expression,group mean,5.742
same,2510049I19RIK expression,group mean,6.311
same,2600011C06RIK expression,group mean,6.286
same,2810402E24RIK expression,group mean,6.296
same,4733401O04RIK expression,group mean,6.449
same,4833420G17RIK expression,group mean,6.181
same,4921505C17RIK expression,group mean,6.382
same,4921506J03RIK expression,group mean,9.893
same,4921506M07RIK expression,group mean,5.749
same,4922502D21RIK expression,group mean,5.774
same,4930449I04RIK expression,group mean,5.894
same,4930524L23RIK expression,group mean,5.492
same,5830411J07RIK expression,group mean,5.837
same,5830415L20RIK expression,group mean,7.797
same,5830472H07RIK expression,group mean,6.24
same,6030408K21RIK expression,group mean,5.64
same,9030003C19RIK expression,group mean,6.271
same,9130601C02RIK expression,group mean,5.724
same,9330133O14RIK expression,group mean,6.205
same,9330171B01RIK expression,group mean,5.814
same,9530013H16R1K expression,group mean,5.782
same,9530053H22 expression,group mean,5.531
same,9830118G07RIK expression,group mean,6.53
same,9930021J03RIK expression,group mean,5.61
same,6030408816RIK expression,group mean,6.231
same,A130003P22RIK expression,group mean,6.043
same,A130027D22RIK expression,group mean,6.184
same,A630040J04RIK expression,group mean,5.997
same,A630057J21RIK expression,group mean,5.71
same,A730082L10RIK expression,group mean,6.255
same,A930008A22RIK expression,group mean,8.393
same,A930025D01RIK expression,group mean,6.43
same,ADRA1B expression,group mean,5.76
same,AFMID expression,group mean,6.226
same,AGPAT5 expression,group mean,5.926
same,AGT expression,group mean,5.634
same,APOM expression,group mean,6.071
same,ARHGAP12 expression,group mean,5.654
same,ASH1L expression,group mean,5.947
same,ATG12 expression,group mean,8.962
same,ATL1 expression,group mean,5.666
same,AW822252 expression,group mean,5.749
same,B230120H23RIK expression,group mean,5.612
same,B230216G23RIK expression,group mean,5.625
same,B930071N01RIK expression,group mean,5.764
same,BC003331 expression,group mean,7.368
same,BC016608 expression,group mean,5.838
same,BC057371 expression,group mean,5.752
same,BCL10 expression,group mean,6.261
same,BCL11B expression,group mean,6.506
same,BCORL1 expression,group mean,6.102
same,BHLHB3 expression,group mean,5.621
same,BIRC6 expression,group mean,6.264
same,BMPR1B expression,group mean,5.732
same,C030004B10RIK expression,group mean,5.708
same,C77370 expression,group mean,5.694
same,C87414 expression,group mean,5.972
same,C130039E17RIK expression,group mean,5.729
same,C130064E22RIK expression,group mean,7.411
same,C130072C03RIK expression,group mean,6.075
same,C130075H21RIK expression,group mean,5.869
same,C130078D09RIK expression,group mean,6.02
same,C330011J12RIK expression,group mean,5.722
same,CALCRL expression,group mean,5.569
same,CCDC104 expression,group mean,5.832
same,CDH23 expression,group mean,5.945
same,CDKN1B expression,group mean,6.29
same,CFL2 expression,group mean,6.246
same,CHMP7 expression,group mean,9.491
same,CLASP1 expression,group mean,6.034
same,COL23A1 expression,group mean,7.128
same,COPS3 expression,group mean,6.029
same,COPZ1 expression,group mean,6.26
same,CPEB2 expression,group mean,5.648
same,CRLF1 expression,group mean,5.648
same,CTDSPL2 expression,group mean,6.711
same,D12WSU95E expression,group mean,9.426
same,D130078K04RIK expression,group mean,5.957
same,D730033A03RIK expression,group mean,5.894
same,D930007M19RIK expression,group mean,6.333
same,DEFB14 expression,group mean,5.775
same,DLC1 expression,group mean,5.804
same,DLG4 expression,group mean,6.044
same,DLGAP2 expression,group mean,5.718
same,DLX6 expression,group mean,5.766
same,DNAJC28 expression,group mean,5.998
same,DPPA1 expression,group mean,5.758
same,DPPA4 expression,group mean,5.791
same,E230016F22RIK expression,group mean,5.685
same,E530016P10RIK expression,group mean,6.096
same,EEFSEC expression,group mean,5.654
same,EG546913 expression,group mean,5.766
same,ELF2 expression,group mean,6.475
same,EP400 expression,group mean,5.945
same,FAAH expression,group mean,5.947
same,FABP2 expression,group mean,5.582
same,FBXW13 expression,group mean,5.945
same,FOXJ3 expression,group mean,8.648
same,GADD45GIP1 expression,group mean,5.893
same,GALNT1 expression,group mean,7.895
same,GALNT6 expression,group mean,5.873
same,GAPVD1 expression,group mean,9.838
same,GLRA1 expression,group mean,5.643
same,GM239 expression,group mean,5.731
same,GM438 expression,group mean,5.731
same,GM949 expression,group mean,5.662
same,GPR12 expression,group mean,5.747
same,GPRIN3 expression,group mean,5.628
same,GUCY2C expression,group mean,5.74
same,HARS expression,group mean,6.212
same,HBB-B1 expression,group mean,13.28
same,HEATR5B expression,group mean,6.251
same,HIRA expression,group mean,5.73
same,HIVEP3 expression,group mean,5.796
same,HPN expression,group mean,5.793
same,HRK expression,group mean,5.72
same,HSD362 expression,group mean,5.745
same,HSPA1B expression,group mean,5.99
same,ID2 expression,group mean,6.095
same,IFI204 expression,group mean,5.486
same,IGHV14S3—X03573$M12991X03573—IG_HEAVY—VARIABLE_14S3_203 expression,group mean,6.044
same,IKZF5 expression,group mean,7.23
same,IL1F9 expression,group mean,5.644
same,INPP4B expression,group mean,9.329
same,INSL6 expression,group mean,9.438
same,ITGA6 expression,group mean,6.589
same,ITK expression,group mean,10.36
same,JRKL expression,group mean,5.816
same,K20D4 expression,group mean,5.688
same,KAT2B expression,group mean,6.564
same,KCNK4 expression,group mean,5.659
same,KISS1 expression,group mean,5.727
same,KRIT1 expression,group mean,5.684
same,KRT32 expression,group mean,6.01
same,LCN3 expression,group mean,5.859
same,LCP2 expression,group mean,6.557
same,LOC209474 expression,group mean,5.679
same,LOC229152 expression,group mean,5.605
same,LOC236397 expression,group mean,5.838
same,LOC236831 expression,group mean,12.43
same,LOC268939 expression,group mean,5.99
same,LOC279638 expression,group mean,6.022
same,LOC333749 expression,group mean,5.939
same,LOC381448 expression,group mean,12.91
same,LOC381561 expression,group mean,13.17
same,LOC381770 expression,group mean,6.112
same,LOC382061 expression,group mean,10.4
same,LOC382454 expression,group mean,5.761
same,LOC384240 expression,group mean,5.807
same,LOC384287 expression,group mean,5.612
same,LOC385027 expression,group mean,5.666
same,LOC385046 expression,group mean,5.695
same,LOC630421 expression,group mean,5.995
same,LOC637082 expression,group mean,5.805
same,LOC674087 expression,group mean,8.034
same,LOC675899 expression,group mean,11.9
same,LOC100045437 expression,group mean,5.74
same,LOC100046343 expression,group mean,8.607
same,LOC100046568 expression,group mean,5.888
same,LOC100048049 expression,group mean,5.81
same,LOC100048616 expression,group mean,6.595
same,LOXL3 expression,group mean,5.801
same,LPIN2 expression,group mean,7.582
same,LRRC18 expression,group mean,5.542
same,LRRC39 expression,group mean,5.712
same,MACROD2 expression,group mean,5.854
same,MADD expression,group mean,5.584
same,MAT2A expression,group mean,8.359
same,MDM2 expression,group mean,10.46
same,MEDI expression,group mean,5.672
same,MEX3A expression,group mean,6.913
same,MIA3 expression,group mean,5.862
same,MIS12 expression,group mean,5.989
same,MKI67 expression,group mean,5.673
same,MRPS31 expression,group mean,5.671
same,MSH3 expression,group mean,6.288
same,MYB expression,group mean,5.95
same,MYO5C expression,group mean,5.73
same,NA112 expression,group mean,8.275
same,NANP expression,group mean,5.686
same,NARF expression,group mean,7.224
same,NCOA2 expression,group mean,5.964
same,NDRG1 expression,group mean,7.329
same,NIN expression,group mean,8.534
same,NIPSNAP1 expression,group mean,9.27
same,NT5C expression,group mean,10.09
same,NUFIP2 expression,group mean,6.03
same,OLFR125 expression,group mean,5.697
same,OLFR463 expression,group mean,5.805
same,OLFR504 expression,group mean,5.746
same,OLFR564 expression,group mean,5.592
same,OLFR782 expression,group mean,5.74
same,OLFR894 expression,group mean,5.766
same,PAPPA expression,group mean,5.918

# — patent publication US20140193827A1 (TEVA PHARMACEUTICAL INDUSTRIES, LTD., priority 2013, published 2014)
